Values after ≈ are worked out from the molar mass of the structure shown.
How the values were obtained:
Assay type in all cases: functional
Chlamydia trachomatis [1] = experiment: Antimicrobial activity against Chlamydia trachomatis L2/oflR harboring ompA gene
Chlamydia suis [2] = experiment: Antimicrobial activity against Chlamydia suis S45/rifR harboring rpoB gene
Chlamydia trachomatis [3] = experiment: Antimicrobial activity against Chlamydia trachomatis J/6276/rifR harboring ompA and rpoB genes
Chlamydia muridarum [4] = experiment: Antimicrobial activity against Chlamydia muridarum MoPn/oflR harboring ompA gene
Chlamydia trachomatis [5] = experiment: Antimicrobial activity against Chlamydia trachomatis L2/oflR-rifR1 harboring ompA and rpoB genes
Chlamydia suis [6] = experiment: Antimicrobial activity against Chlamydia suis R19/tetR harboring tet(C) allele
Chlamydia muridarum [7] = experiment: Antimicrobial activity against Chlamydia muridarum MoPn/rifRoflR harboring ompA and rpoB genes
Chlamydia trachomatis [8] = experiment: Antimicrobial activity against Chlamydia trachomatis L2/tetR13 harboring tet(C) allele
Chlamydia trachomatis [9] = experiment: Antimicrobial activity against Chlamydia trachomatis J/6276/tetR harboring tet(C) allele
Chlamydia trachomatis [10] = experiment: Antimicrobial activity against Chlamydia trachomatis F/70/rifR harboring rpoB gene
Chlamydophila caviae = experiment: Antimicrobial activity against Chlamydophila caviae GPIC/rifR harboring rpoB gene; conditions: Chlamydia caviae
Chlamydia trachomatis [11] = experiment: Antimicrobial activity against Chlamydia trachomatis L2/oflR-rifR2 harboring […] and rpoB genes
Chlamydia trachomatis [12] = experiment: Antimicrobial activity against Chlamydia trachomatis J/6276/oflR-rifR1 harboring ompA and rpoB genes
Chlamydia muridarum [13] = experiment: Antimicrobial activity against Chlamydia muridarum MoPn/oflR-rifR harboring ompA and rpoB genes
Chlamydia trachomatis [14] = experiment: Antimicrobial activity against Chlamydia trachomatis J/6276/oflR-rifR2 harboring ompA and rpoB genes
Chlamydia trachomatis [15] = experiment: Antimicrobial activity against Chlamydia trachomatis L2/tetR1 harboring tet(C) allele
Chlamydia muridarum [16] = experiment: Antimicrobial activity against Chlamydia muridarum MoPn/tetR14 harboring tet(C) allele
Chlamydia muridarum [17] = experiment: Antimicrobial activity against Chlamydia muridarum MoPn/tetR1 harboring tet(C) allele
Chlamydia trachomatis [18] = experiment: Antimicrobial activity against Chlamydia trachomatis F/70/rifR-tetR harboring rpoB gene and tet(C) allele

Compound	MIC (Chlamydia trachomatis [1]) [µg/mL]	MIC (Chlamydia suis [2]) [µg/mL]	MIC (Chlamydia trachomatis [3]) [µg/mL]	MIC (Chlamydia muridarum [4]) [µg/mL]	MIC (Chlamydia trachomatis [5]) [µg/mL]	MIC (Chlamydia suis [6]) [µg/mL]	MIC (Chlamydia muridarum [7]) [µg/mL]	MIC (Chlamydia trachomatis [8]) [µg/mL]	MIC (Chlamydia trachomatis [9]) [µg/mL]	MIC (Chlamydia trachomatis [10]) [µg/mL]	MIC (Chlamydophila caviae) [µg/mL]	MIC (Chlamydia trachomatis [11]) [µg/mL]	MIC (Chlamydia trachomatis [12]) [µg/mL]	MIC (Chlamydia muridarum [13]) [µg/mL]	MIC (Chlamydia trachomatis [14]) [µg/mL]	MIC (Chlamydia trachomatis [15]) [µg/mL]	MIC (Chlamydia muridarum [16]) [µg/mL]	MIC (Chlamydia muridarum [17]) [µg/mL]	MIC (Chlamydia trachomatis [18]) [µg/mL]
CC1COc2c(N3CCN(C)CC3)c(F)cc3c(=O)c(C(=O)O)cn1c23 (configuration not stated) [OFLOXACIN]	16 (≈ 44.3 µM)	0.5 (≈ 1.38 µM)	0.5 (≈ 1.38 µM)	32 (≈ 88.6 µM)	16 (≈ 44.3 µM)	0.5 (≈ 1.38 µM)	32 (≈ 88.6 µM)	16 (≈ 44.3 µM)	0.5 (≈ 1.38 µM)	0.5 (≈ 1.38 µM)	0.5 (≈ 1.38 µM)	16 (≈ 44.3 µM)	16 (≈ 44.3 µM)	32 (≈ 88.6 µM)	32 (≈ 88.6 µM)	16 (≈ 44.3 µM)	32 (≈ 88.6 µM)	32 (≈ 88.6 µM)	0.5 (≈ 1.38 µM)
CN(C)[C@@H]1C(O)=C(C(N)=O)C(=O)[C@@]2(O)C(O)=C3C(=O)c4c(O)cccc4[C@@](C)(O)[C@H]3C[C@@H]12 [TETRACYCLINE]	0.032 (≈ 0.072 µM)	0.032 (≈ 0.072 µM)	0.032 (≈ 0.072 µM)	0.032 (≈ 0.072 µM)	0.008 (≈ 0.018 µM)	8 (≈ 18 µM)	0.008 (≈ 0.018 µM)	8 (≈ 18 µM)	8 (≈ 18 µM)	0.032 (≈ 0.072 µM)	0.032 (≈ 0.072 µM)	0.032 (≈ 0.072 µM)	0.032 (≈ 0.072 µM)	0.032 (≈ 0.072 µM)	0.032 (≈ 0.072 µM)	8 (≈ 18 µM)	8 (≈ 18 µM)	8 (≈ 18 µM)	8 (≈ 18 µM)
CO[C@H]1/C=C/O[C@@]2(C)Oc3c(C)c(O)c4c(O)c(c(/C=N/N5CCN(C)CC5)c(O)c4c3C2=O)NC(=O)/C(C)=C\C=C\[C@H](C)[C@H](O)[C@@H](C)[C@@H](O)[C@@H](C)[C@H](OC(C)=O)[C@@H]1C [RIFAMPIN]	0.004 (≈ 0.00486 µM)	0.25 (≈ 0.304 µM)	0.004 (≈ 0.00486 µM)	0.008 (≈ 0.00972 µM)	128 (≈ 156 µM)	0.004 (≈ 0.00486 µM)	128 (≈ 156 µM)	0.004 (≈ 0.00486 µM)	8 (≈ 9.72 µM)	32 (≈ 38.9 µM)	16 (≈ 19.4 µM)	0.25 (≈ 0.304 µM)	8 (≈ 9.72 µM)	0.25 (≈ 0.304 µM)	8 (≈ 9.72 µM)	128 (≈ 156 µM)	128 (≈ 156 µM)	0.008 (≈ 0.00972 µM)	32 (≈ 38.9 µM)

From ChEMBL document CHEMBL1649244, “Horizontal transfer of tetracycline resistance among Chlamydia spp. in vitro” (2009)
